≈ marks a conversion by molar mass, not a printed value.
Columns and labels:
Test in all cases: in vitro antibacterial evaluation, MIC by broth dilution
Format in all cases: cell-based
[1] = system: Escherichia coli; settings: 18 hours at 35° C.
[2] = system: Enterococcus sp.; settings: broth dilution, 18 hours at 35° C.
How it was run: (§1)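 Read-out: the lowest concentration at which the test strain fails to grow. Serial dilutions (64-0.06 μg/mL) in Muller-Hinton II […], 5×10^5 CFU/mL inoculum, NCCLS M7-A2 procedure.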

[3] = system: Staphylococcus sp.; settings: broth dilution, 18 hours at 35° C.
How it was run: as §1

[4] = system: Streptococcus sp.; settings: broth dilution, 18 hours at 35° C.
How it was run: as §1

MIC Escherichia coli (ATCC 25922) [1]: 64 µg/mL (≈ 42.3 µM)
MIC Escherichia coli (GC 4559) [1]: >64 µg/mL
MIC Escherichia coli (GC 4560) [1]: 8 µg/mL (≈ 5.29 µM)
MIC Enterococcus avium (GC 4558) [2]: 4 µg/mL (≈ 2.65 µM)
MIC Enterococcus faecalis (ATCC 29212) [2]: 4 µg/mL (≈ 2.65 µM)
MIC Enterococcus faecalis (GC 2242) [2]: 4 µg/mL (≈ 2.65 µM)
MIC Enterococcus faecalis (GC 2691) [2]: 4 µg/mL (≈ 2.65 µM)
MIC Enterococcus faecalis (GC 3059) [2]: 4 µg/mL (≈ 2.65 µM)
MIC Enterococcus faecalis (GC 4552) [2]: 4 µg/mL (≈ 2.65 µM)
MIC Enterococcus faecalis (GC 4553) [2]: 4 µg/mL (≈ 2.65 µM)
MIC Enterococcus faecalis (GC 4554) [2]: 4 µg/mL (≈ 2.65 µM)
MIC Enterococcus faecalis (GC 6189) [2]: 4 µg/mL (≈ 2.65 µM)
MIC Enterococcus faecium (GC 2243) [2]: 4 µg/mL (≈ 2.65 µM)
MIC Enterococcus faecium (GC 4556) [2]: 4 µg/mL (≈ 2.65 µM)
MIC Enterococcus faecium (GC 4557) [2]: 4 µg/mL (≈ 2.65 µM)
MIC Enterococcus faecalis (ATCC 29212) ([2]; inoculum 5×10^5 CFU/mL, strain ATCC 29212): 4 µg/mL (≈ 2.65 µM)
MIC Enterococcus faecalis (GC 2242) ([2]; inoculum 5×10^5 CFU/mL, strain GC 2242): 4 µg/mL (≈ 2.65 µM)
MIC Enterococcus faecium (GC 2243) ([2]; inoculum 5×10^5 CFU/mL, strain GC 2243): 4 µg/mL (≈ 2.65 µM)
MIC Enterococcus faecalis (GC 2691) ([2]; inoculum 5×10^5 CFU/mL, strain GC 2691): 4 µg/mL (≈ 2.65 µM)
MIC Enterococcus faecalis (GC 3059) ([2]; inoculum 5×10^5 CFU/mL, strain GC 3059): 4 µg/mL (≈ 2.65 µM)
MIC Enterococcus faecalis (GC 4552) ([2]; inoculum 5×10^5 CFU/mL, strain GC 4552): 4 µg/mL (≈ 2.65 µM)
MIC Enterococcus faecalis (GC 4553) ([2]; inoculum 5×10^5 CFU/mL, strain GC 4553): 4 µg/mL (≈ 2.65 µM)
MIC Enterococcus faecalis (GC 4554) ([2]; inoculum 5×10^5 CFU/mL, strain GC 4554): 4 µg/mL (≈ 2.65 µM)
MIC Enterococcus faecium (GC 4556) ([2]; inoculum 5×10^5 CFU/mL, strain GC 4556): 4 µg/mL (≈ 2.65 µM)
MIC Enterococcus faecium (GC 4557) ([2]; inoculum 5×10^5 CFU/mL, strain GC 4557): 4 µg/mL (≈ 2.65 µM)
MIC Enterococcus avium (GC 4558) ([2]; inoculum 5×10^5 CFU/mL, strain GC 4558): 4 µg/mL (≈ 2.65 µM)
MIC Enterococcus faecalis (GC 6189) ([2]; inoculum 5×10^5 CFU/mL, strain GC 6189): 4 µg/mL (≈ 2.65 µM)
MIC Staphylococcus aureus (ATCC 29213) ([3]; strain ATCC 29213): 4 µg/mL (≈ 2.65 µM)
MIC Staphylococcus aureus (GC 1131) ([3]; strain GC 1131): 4 µg/mL (≈ 2.65 µM)
MIC Staphylococcus aureus (GC 3051) ([3]; strain GC 3051): 4 µg/mL (≈ 2.65 µM)
MIC Staphylococcus aureus (GC 3053) ([3]; strain GC 3053): 4 µg/mL (≈ 2.65 µM)
MIC Staphylococcus aureus (GC 4541) ([3]; strain GC 4541): 4 µg/mL (≈ 2.65 µM)
MIC Staphylococcus aureus (GC 4542) ([3]; strain GC 4542): 4 µg/mL (≈ 2.65 µM)
MIC Staphylococcus aureus-SMITH (GC 4543) ([3]; strain GC 4543): 4 µg/mL (≈ 2.65 µM)
MIC Staphylococcus aureus (GC 4544) ([3]; strain GC 4544): 4 µg/mL (≈ 2.65 µM)
MIC Staphylococcus aureus (GC 4545) ([3]; strain GC 4545): 4 µg/mL (≈ 2.65 µM)
MIC Coagulase Negative Staphylococcus (GC 4547) ([3]; strain GC 4547): 4 µg/mL (≈ 2.65 µM)
MIC Coagulase Negative Staphylococcus (GC 4548) ([3]; strain GC 4548): 4 µg/mL (≈ 2.65 µM)
MIC Coagulase Negative Staphylococcus (GC 4549) ([3]; strain GC 4549): 4 µg/mL (≈ 2.65 µM)
MIC Coagulase Negative Staphylococcus (GC 4551) ([3]; strain GC 4551): 8 µg/mL (≈ 5.29 µM)
MIC Coagulase Negative Staphylococcus (GC 6257) ([3]; strain GC 6257): 4 µg/mL (≈ 2.65 µM)
MIC Streptococcus agalactiae (GC 4564) [4]: 0.25 µg/mL (≈ 0.165 µM)
MIC Streptococcus pneumoniae (ATCC 6301) [4]: 0.12 µg/mL (≈ 0.0794 µM)
MIC Streptococcus pneumoniae (GC 1894) [4]: <0.06 µg/mL
MIC Streptococcus pneumoniae (GC 4565) [4]: 0.12 µg/mL (≈ 0.0794 µM)
MIC Streptococcus pyogenes (GC 4563) [4]: 0.5 µg/mL (≈ 0.331 µM)
MIC Streptococcus pneumoniae (ATCC 6301) ([4]; inoculum 5×10^5 CFU/mL, strain ATCC 6301): 0.12 µg/mL (≈ 0.0794 µM)
MIC Streptococcus pneumoniae (GC 1894) ([4]; inoculum 5×10^5 CFU/mL, strain GC 1894): <0.06 µg/mL
MIC Streptococcus pyogenes (GC 4563) ([4]; inoculum 5×10^5 CFU/mL, strain GC 4563): 0.5 µg/mL (≈ 0.331 µM)
MIC Streptococcus agalactiae (GC 4564) ([4]; inoculum 5×10^5 CFU/mL, strain GC 4564): 0.25 µg/mL (≈ 0.165 µM)
MIC Streptococcus pneumoniae (GC 4565) ([4]; inoculum 5×10^5 CFU/mL, strain GC 4565): 0.12 µg/mL (≈ 0.0794 µM)
Structure (SMILES): CC(C)CC(=O)OC1C(O)C(OC2C(CO)OC(Oc3ccc(CC4NC(=O)C(C(C)c5ccccc5)NC(=O)CNC(=O)C(CO)NC(=O)C(C(O)C5CNC(=N)N5C5OC(CO)C(O)C(O)C5O)NC(=O)C(C(O)C5CNC(=N)N5)NC4=O)cc3)C(O)C2O)OC2COC3(OC21)C1CC2CC(C1)CC3C2 (stereo not shown) [Example 218]
MIC Staphylococcus haemolyticus (GC 4546) ([3]; strain GC 4546): 4 µg/mL (≈ 2.65 µM)

Source: patent publication US6914045B2, “Glycopeptide antibiotics” (Wyeth Holdings Corporation, priority 2001, dated 2005)
